# From PMC5354814, “In silico and in vitro drug screening identifies new therapeutic approaches for Ewing sarcoma” (Oncotarget, 2016)
# Structures can show the parent of a compound that is named as a salt.
# Tests used:
# Assay in all cases: In vitro high-throughput screen of FDA-approved drug library (CellTiter-Glo)
# Format in all cases: cell-based
# A673 = conditions: 1 μmol/L drug, 72 hours; for inhibition at 1 µM: Homo sapiens, A673, read-out: % Inhibition A673
# Protocol: (§1) We screened, in parallel to the three computational approaches, an FDA-approved drug library containing 2,316 drugs (1,536 unique chemical entities). […] The drug screening study protocol employed is summarized in Supplementary Table S1.
# (§2) Cells were grown to 80–90% confluence, harvested and aliquoted into 384-well plates (black μClear microplates, Greiner bio-one, Germany) at concentrations of 750–1,500 cells per well in a total volume of 25 μl/well using a Matrix Wellmate (Thermo Scientific). Cells were cultured for 72 hours in a 5% CO2 atmosphere at 37°C. Aliquots of 25 μl CellTiter-Glo® Reagent (Promega) were added directly to each well, the plates were incubated at room temperature for 20 min and the luminescence signal was measured according to the manufacturer's protocol. The measurements were made using Infinite® M200 Pro plate reader (Tecan, Switzerland). […] Data were normalized to percentage inhibition. […]
# (§3) (A) Color scale for drug inhibition values. […]
# Hs 919.T. = conditions: 1 μmol/L drug, 72 hours, control cell line; for inhibition at 1 µM: read-out: % Inhibition Hs 919.T.
# Protocol: as §1, §2, §3
# RD-ES = conditions: 1 μmol/L drug, 72 hours; for inhibition at 1 µM: RD-ES, read-out: % Inhibition RD-ES
# Protocol: as §1, §2, §3
# SK-ES-1 = conditions: 1 μmol/L drug, 72 hours; for inhibition at 1 µM: Homo sapiens, SK-ES1, read-out: % Inhibition SK-ES-1
# Protocol: as §1, §2, §3
SMILES,inhibition at 1 µM (A673) [%],inhibition at 1 µM (Hs 919.T.) [%],inhibition at 1 µM (RD-ES) [%],inhibition at 1 µM (SK-ES-1) [%],% Inhibition A673 (A673) [%],% Inhibition Hs 919.T. (Hs 919.T.) [%],% Inhibition RD-ES (RD-ES) [%],% Inhibition SK-ES-1 (SK-ES-1) [%]
O=c1c2ccccc2[se]n1-c1ccccc1 [Ebselen],93,< 50,95,96,–,–,–,–
CCN(CC)C(=S)SSC(=S)N(CC)CC [Disulfiram],99,< 50,96,95,–,–,–,–
Nc1nc(O)c2[nH]nnc2n1 [Azaguanine-8],–,–,–,–,83,< 50,< 50,< 50
"CN(Cc1cnc2nc(N)nc(N)c2n1)c1ccc(C(=O)N[C@@H](CCC(=O)O)C(=O)O)cc1 [L-Glutamic acid, N-[4-[[(2,4-diamino-6-pteridinyl)methyl]methylamino]benzoyl]]",–,–,–,–,85,< 50,77,57
"CC[C@@]1(O)C(=O)OCc2c1cc1n(c2=O)Cc2cc3ccccc3nc2-1 [Camptothecine (S,+)]",–,–,–,–,99,< 50,97,96
CCc1c2c(nc3ccc(OC(=O)N4CCC(N5CCCCC5)CC4)cc13)-c1cc3c(c(=O)n1C2)COC(=O)[C@]3(O)CC.Cl [Irinotecan Hydrochloride],–,–,–,–,83,< 50,99,98
COC(=O)Nc1nc2ccc(Sc3ccccc3)cc2[nH]1 [Fenbendazole],75,< 50,86,78,–,–,–,–
CC[C@@]1(O)C(=O)OCc2c1cc1n(c2=O)Cc2cc3c(CN(C)C)c(O)ccc3nc2-1 [Topotecan HCl],97,< 50,97,96,–,–,–,–
Nc1ccn([C@@H]2O[C@H](CO)[C@@H](O)[C@@H]2O)c(=O)n1 [Cytosine β-D-arabinofuranoside],–,–,–,–,84,< 50,93,98
Nc1nc(Cl)nc2c1ncn2[C@H]1C[C@H](O)[C@@H](CO)O1 [Cladribine],87,< 50,99,89,–,–,–,–
O=c1[nH]c(=O)n([C@H]2C[C@H](O)[C@@H](CO)O2)cc1C(F)(F)F [Trifluridine],< 50,< 50,71,< 50,–,–,–,–
Nc1nc(=S)c2ncn([C@@H]3O[C@H](CO)[C@@H](O)[C@H]3O)c2[nH]1 [Thioguanosine],73,< 50,< 50,64,–,–,–,–
N=c1ccn2c(n1)O[C@H]1[C@H](O)[C@@H](CO)O[C@H]12 [Cyclocytidine],86,< 50,83,98,–,–,–,–
CCC(C)(C)c1ccc(CC(C)CN2C[C@@H](C)O[C@@H](C)C2)cc1 (stereo partly shown) [Amorolfine],56,< 50,< 50,< 50,–,–,–,–
CCCCC/C=C\C/C=C\C/C=C\C/C=C\CCCC(=O)Nc1ccc(O)cc1 [AM 404],–,–,–,–,65,< 50,< 50,< 50
CCCCCC[C@H]1C(=O)O[C@H](C)[C@H](NC(=O)c2cccc(NC=O)c2O)C(=O)O[C@@H](C)[C@@H]1OC(=O)CC(C)C [Antimycin A],< 50,< 50,69,< 50,–,–,–,–
